In this experiment the test system is human childhood brain tumor cell lines (PFSK-1). Briefly: Growth inhibitory activity against PFSK-1 cells (WST-8, Cell Counting Kit-8). Format: cell-based. Conditions: Homo sapiens, 72 h, 3 days incubation with test compound, WST-8 OD 450/630 nm, read-out: IC50 (concentration inhibiting 50% of the cell growth). As to the method: The growth inhibitory activity against human childhood brain tumor cell lines (PFSK-1) was measured with WST-8 reagent [2-(2-methoxy-4-nitrophenyl)-3-(4-nitrophenyl)-5-(2,4-disulfophenyl)-2H-tetrazolium monosodium salt, Cell Counting Kit-8™], according to the method described in Tominaga, H. et al., Anal. Commun., 1999, 36, 47-50. Briefly, PFSK-1 was seeded in 96-well microplate at 100 μL/well with Roswell Park Memorial Institute (RPMI) 1640 medium containing 10% fetal bovine serum (FBS), and the cells were incubated in the presence of 5% carbon dioxide (CO2) at 37° C. for 24 hours. 50 μL of each test compound diluted with the medium was added to each well, and then the cells were incubated further for 3 days. After the incubation, 15 μL of Cell Counting Kit-8™ was added to each well, and the cells were incubated for one and half hours. Then, optical density (OD) values at measurement wavelength 450 nm and reference wavelength 630 nm were measured and the difference thereof was calculated. From the calculated difference, the OD value difference (at measurement wavelength 450 nm and reference wavelength 630 nm) of the control well which includes no cell was subtracted to afford cell-growth activity in each well.
The cell growth inhibitory activity of each test compound was calculated by comparing the cell-growth activity with each test compound to the cell-growth activity without any test compound (control), and each IC50 (nM) which is the concentration inhibiting 50% of the cell growth was calculated.
(Formazan colour is commonly taken as a measure of viable cells.)

As for `C=Cc1c(OCC(C)O)ccc(C2=NNC(=O)CC2C)c1F` (stereo not drawn) [Example 59, 6-[2-fluoro-4-(2-hydroxypropoxy)-3-vinylphenyl]-5-methyl-4,5-dihydro-2H-pyridazin-3-one], the IC50 is 2.2 nM.

For the compound `CCc1c(OCC(C)O)ccc(C2=NNC(=O)CC2C)c1F` (stereo not drawn) [Example 60, 6-[3-Ethyl-2-fluoro-4-(2-hydroxypropoxy)phenyl]-5-methyl-4,5-dihydro-2H-pyridazin-3-one], the IC50 is 4.7 nM.

On to `CCC(O)COc1ccc(C2=NNC(=O)CC2C)c(F)c1F` (stereo not drawn) [Example 61, 6-[2,3-Difluoro-4-(2-hydroxybutoxy)phenyl]-5-methyl-4,5-dihydro-2H-pyridazin-3-one], for which the IC50 is 4.7 nM.

`CCC(O)COc1c(F)cc(C2=NNC(=O)CC2C)cc1Cl` (stereo not drawn) [Example 62, 6-[3-Chloro-5-fluoro-4-(2-hydroxybutoxy)phenyl]-5-methyl-4,5-dihydro-2H-pyridazin-3-one]: the IC50 came out at 8.9 nM.

On to `CCC(O)COc1c(Cl)cc(C2=NNC(=O)CC2C)cc1Cl` (stereo not drawn) [Example 63, 6-[3,5-Dichloro-4-(2-hydroxybutoxy)phenyl]-5-methyl-4,5-dihydro-2H-pyridazin-3-one], for which the IC50 is 5 nM.

Turning to `CCC(O)COc1ccc(C2=NNC(=O)CC2C)c(F)c1Cl` (stereo not drawn) [Example 64, 6-[3-chloro-2-fluoro-4-(2-hydroxybutoxy)phenyl]-5-methyl-4,5-dihydro-2H-pyridazin-3-one], the IC50 was found to be 2.1 nM.

Turning to `CCC(O)COc1c(C)cc(C2=NNC(=O)CC2C)cc1Cl` (stereo not drawn) [Example 65, 6-[3-Chloro-4-(2-hydroxybutoxy)-5-methylphenyl]-5-methyl-4,5-dihydro-2H-pyridazin-3-one], the IC50 was determined as 4.3 nM.

Take `CCC(O)COc1c(Cl)cc(C2=NNC(=O)CC2C)cc1Br` (stereo not drawn) [Example 66, 6-[3-Bromo-5-chloro-4-(2-hydroxybutoxy)phenyl]-5-methyl-4,5-dihydro-2H-pyridazin-3-one]: the IC50 worked out at 4.1 nM.

Turning to `C=Cc1c(OCC(O)CC)ccc(C2=NNC(=O)CC2C)c1F` (stereo not drawn) [Example 67, 6-[2-Fluoro-4-(2-hydroxybutoxy)-3-vinylphenyl]-5-methyl-4,5-dihydro-2H-pyridazin-3-one], the IC50 came to 3.6 nM.

For the compound `CC1CC(=O)NN=C1c1cc(F)c(OCC(C)(C)CO)c(Br)c1` (stereo not drawn) [Example 69, 6-[3-bromo-5-fluoro-4-(3-hydroxy-2,2-dimethylpropoxy)phenyl]-5-methyl-4,5-dihydro-2H-pyridazin-3-one], the IC50 amounted to 1.2 nM.

On to `CC1CC(=O)NN=C1c1ccc(OCC(C)(C)CO)c(Br)c1F` (stereo not drawn) [Example 70, 6-[3-Bromo-2-fluoro-4-(3-hydroxy-2,2-dimethylpropoxy)phenyl]-5-methyl-4,5-dihydro-2H-pyridazin-3-one], for which the IC50 is 5.3 nM.

With `Cc1cc(C2=NNC(=O)CC2C)cc(C)c1OCC(C)(C)CO` (stereo not drawn) [Example 71, 6-[4-(3-Hydroxy-2,2-dimethylpropoxy)-3,5-dimethylphenyl]-5-methyl-4,5-dihydro-2H-pyridazin-3-one], the IC50 was 3.9 nM.

As for `Cc1cc(C2=NNC(=O)CC2C)cc(Cl)c1OCC(C)(C)CO` (stereo not drawn) [Example 72, 6-[3-chloro-4-(3-hydroxy-2,2-dimethylpropoxy)-5-methylphenyl]-5-methyl-4,5-dihydro-2H-pyridazin-3-one], the IC50 turned out to be 0.9 nM.

`Cc1c(OCC(C)O)ccc(C2=NNC(=O)CC2C)c1O` (stereo not drawn) [Example 74, 6-[2-hydroxy-4-(2-hydroxypropoxy)-3-methylphenyl]-5-methyl-4,5-dihydro-2H-pyridazin-3-one]: the IC50 stood at 4.1 nM.

Regarding `CC(O)COc1ccc(C2=NNC(=O)CC2C)c(O)c1Cl` (stereo not drawn) [Example 75, 6-[3-Chloro-2-hydroxy-4-(2-hydroxypropoxy)phenyl]-5-methyl-4,5-dihydro-2H-pyridazin-3-one], the IC50 amounted to 3.2 nM.

In the case of `CC1CC(=O)NN=C1c1ccc(OC/C=C\CO)c(Cl)c1F` (stereo not drawn) [Example 76, 6-{3-chloro-2-fluoro-4-[(Z)-4-hydroxy-2-butenyloxy]phenyl}-5-methyl-4,5-dihydro-2H-pyridazin-3-one], the IC50 is 2.7 nM.

With `Cc1cc(C2=NNC(=O)CC2C)cc(Cl)c1OCCCCO` (stereo not drawn) [Example 79, 6-[3-Chloro-4-(4-hydroxybutoxy)-5-methylphenyl]-5-methyl-4,5-dihydro-2H-pyridazin-3-one], the IC50 is 5.6 nM.

As to `CC1CC(=O)NN=C1c1cc(F)c(OCCCCO)c(Br)c1` (stereo not drawn) [Example 80, 6-[3-Bromo-5-fluoro-4-(4-hydroxybutoxy)phenyl]-5-methyl-4,5-dihydro-2H-pyridazin-3-one], the IC50 came to 5.1 nM.

For `CC1CC(=O)NN=C1c1cc(Cl)c(OCCCCO)c(Cl)c1` (stereo not drawn) [Example 81, 6-[3,5-Dichloro-4-(4-hydroxybutoxy)phenyl]-5-methyl-4,5-dihydro-2H-pyridazin-3-one], the IC50 is 4.7 nM.

On to `CC1CC(=O)NN=C1c1ccc(OCCCCO)c(F)c1F` (stereo not drawn) [Example 82, 6-[2,3-Difluoro-4-(4-hydroxybutoxy)phenyl]-5-methyl-4,5-dihydro-2H-pyridazin-3-one], for which the IC50 came out at 6 nM.

In the case of `Cc1c(OCCCCO)ccc(C2=NNC(=O)CC2C)c1F` (stereo not drawn) [Example 83, 6-[2-Fluoro-4-(4-hydroxybutoxy)-3-methylphenyl]-5-methyl-4,5-dihydro-2H-pyridazin-3-one], the IC50 came out at 6.6 nM.

With `CC1CC(=O)NN=C1c1ccc(OCCCCO)c(Cl)c1F` (stereo not drawn) [Example 84, 6-[3-Chloro-2-fluoro-4-(4-hydroxybutoxy)phenyl]-5-methyl-4,5-dihydro-2H-pyridazin-3-one], the IC50 amounted to 3.3 nM.

In the case of `C=Cc1c(OCCCO)ccc(C2=NNC(=O)CC2C)c1F` (stereo not drawn) [Example 85, 6-[2-Fluoro-4-(3-hydroxypropoxy)-3-vinylphenyl]-5-methyl-4,5-dihydro-2H-pyridazin-3-one], the IC50 is 4 nM.

With `Cc1cc(C2=NNC(=O)CC2C)cc(Cl)c1OC/C=C\CO` (stereo not drawn) [Example 86, 6-{3-Chloro-4-[(Z)-4-hydroxy-2-butenyloxy]-5-methylphenyl}-5-methyl-4,5-dihydro-2H-pyridazin-3-one], the IC50 stood at 4.6 nM.

Take `CC1CC(=O)NN=C1c1ccc(OC/C=C/CO)c(Cl)c1F` (stereo not drawn) [Example 90, 6-[3-Chloro-2-fluoro-4-[(E)-4-hydroxy-2-butenyloxy]phenyl}-5-methyl-4,5-dihydro-2H-pyridazin-3-one]: the IC50 worked out at 3.9 nM.

Take `CC1CC(=O)NN=C1c1ccc(OCCCCCO)c(Cl)c1F` (stereo not drawn) [Example 91, 6-[3-Chloro-2-fluoro-4-(5-hydroxypentoxy)phenyl]-5-methyl-4,5-dihydro-2H-pyridazin-3-one]: the IC50 stood at 6 nM.

As to `Cc1c(OC/C=C\CO)ccc(C2=NNC(=O)CC2C)c1F` (stereo not drawn) [Example 92, 6-[2-Fluoro-4-[(Z)-4-hydroxy-2-butenyloxy]-3-methylphenyl]-5-methyl-4,5-dihydro-2H-pyridazin-3-one], the IC50 came to 4.9 nM.

With `CC1CC(=O)NN=C1c1ccc(OC/C=C\CO)c(F)c1F` (stereo not drawn) [Example 93, 6-{2,3-Difluoro-4-[(Z)-4-hydroxy-2-butenyloxy]phenyl}-5-methyl-4,5-dihydro-2H-pyridazin-3-one], the IC50 stood at 3.1 nM.

Take `CC1CC(=O)NN=C1c1cc(F)c(OC/C=C\CO)c(Cl)c1` (stereo not drawn) [Example 94, 6-{3-Chloro-5-fluoro-4-[(Z)-4-hydroxy-2-butenyloxy]phenyl}-5-methyl-4,5-dihydro-2H-pyridazin-3-one]: the IC50 amounted to 3 nM.

As for `CC1CC(=O)NN=C1c1cc(F)c(OC/C=C\CO)c(Br)c1` (stereo not drawn) [Example 95, 6-{3-Bromo-5-fluoro-4-[(Z)-4-hydroxy-2-butenyloxy]phenyl}-5-methyl-4,5-dihydro-2H-pyridazin-3-one], the IC50 came to 3 nM.

On to `C=Cc1c(OC/C=C\CO)ccc(C2=NNC(=O)CC2C)c1F` (stereo not drawn) [Example 96, 6-{2-Fluoro-4-[(Z)-4-hydroxy-2-butenyloxy]-3-vinylphenyl}-5-methyl-4,5-dihydro-2H-pyridazin-3-one], for which the IC50 was found to be 3.9 nM.

In the case of `CCc1c(OCCCCO)ccc(C2=NNC(=O)CC2C)c1F` (stereo not drawn) [Example 97, 6-[3-Ethyl-2-fluoro-4-(4-hydroxybutoxy)phenyl]-5-methyl-4,5-dihydro-2H-pyridazin-3-one], the IC50 was 8.6 nM.

For the compound `Cc1cc(C2=NNC(=O)CC2C)cc(Cl)c1OCC(C)(C)CCO` (stereo not drawn) [Example 98, 6-[3-chloro-4-(4-hydroxy-2,2-dimethylbutoxy)-5-methylphenyl]-5-methyl-4,5-dihydro-2H-pyridazin-3-one], the IC50 turned out to be 3.6 nM.

As for `CC1CC(=O)NN=C1c1cc(F)c(OCC(C)(C)CCO)c(Cl)c1` (stereo not drawn) [Example 99, 6-[3-chloro-5-fluoro-4-(4-hydroxy-2,2-dimethylbutoxy)phenyl]-5-methyl-4,5-dihydro-2H-pyridazin-3-one], the IC50 is below 1 nM.

Regarding `CC1CC(=O)NN=C1c1cc(Cl)c(OCC(C)(C)CCO)c(Cl)c1` (stereo not drawn) [Example 100, 6-[3,5-dichloro-4-(4-hydroxy-2,2-dimethylbutoxy)phenyl]-5-methyl-4,5-dihydro-2H-pyridazin-3-one], the IC50 came to 1.6 nM.

With `Cc1cc(C2=NNC(=O)CC2C)cc(F)c1OCC(C)(C)CCO` (stereo not drawn) [Example 101, 6-[3-Fluoro-4-(4-hydroxy-2,2-dimethylbutoxy)-5-methylphenyl]-5-methyl-4,5-dihydro-2H-pyridazin-3-one], the IC50 came out at 7.5 nM.

The record behind these values is patent publication US10611731B2, “5-methyl-6-phenyl-4,5-dihydro-2H-pyridazin-3-one derivative” (OTSUKA PHARMACEUTICAL CO., LTD., priority 2016, dated 2020).
